In US12447170B2, “Use of maribavir in treatment regimens” (priority 2021, dated 2025):
Entries after “also recorded” stand apart in the source; their conditions may differ.

Legend:
CYP2E1 = biological target: T1, CYP2E1 (Homo sapiens, UniProt P05181); assay: Reversible CYP inhibition in human liver microsomes (HLM); type: in vitro ADME; conditions: up to 100 μM
T1 construct: from tissue; host or cells: human liver microsomes
Method: HLM were used to evaluate maribavir's half maximal inhibitory concentration (IC50) on inhibition of activities of nine CYP isoforms. Probe substrates were phenacetin (CYP1A2), coumarin (CYP2A6), bupropion (CYP2B6), paclitaxel (CYP2C8), tolbutamide (CYP2C9), (S)-mephenytoin (CYP2C19), dextromethorphan (CYP2D6), clorzoxazone (CYP2E1), and midazolam and testosterone (CYP3A4).
CYP activities with 0, 0.1, 0.3, 1, 3, 10, 30, and 100 μM of maribavir were evaluated.

[1] = Phase 2 studies for treatment of CMV infection/diseases: safety/tolerability; type: in vivo, human; conditions: doses up to 1200 mg BID
[2] = PBPK model simulation of maribavir alone; set-up: species or system human
Method: A Physiologically-based Pharmacokinetic (“PBPK”) model based on prior in vitro and in vivo information on the metabolism and kinetics of maribavir was constructed with the aim of predicting plasma concentration-time profiles of maribavir and to evaluate the likely impact of coadministration of CYP3A4 inhibitors and inducers on the kinetics of maribavir in healthy subjects.
A combination of in vitro data and clinical pharmacokinetic data obtained following a single dose of 400 mg maribavir were used to develop the PBPK model. […] The Cmax was marginally under predicted, which could be expected because the PBPK model was optimized for better prediction of C12h.
Distribution models evaluated included a full PBPK model and a minimal PBPK model, both of which consider liver and intestinal metabolism. Mass balance data from the [^14C] ADME study indicated a fraction absorbed of 0.83 or greater following oral administration of 400 mg dose of maribavir. Absorption models evaluated included a simple first-order absorption model and a more mechanistic “Advanced Dissolution Absorption and Metabolism” (ADAM) model.
A comparison of observed and predicted plasma concentrations of maribavir following single oral doses of 800 mg and 1600 mg to healthy patients […]. […] The simulated and observed maribavir concentrations were in reasonable agreement.
A comparison of observed and predicted plasma concentrations of maribavir following multiple oral 400 mg BID doses of maribavir was performed. […] The simulated and observed maribavir concentrations were in reasonable agreement.

P-gp = biological target: T2, P-gp (Homo sapiens, UniProt P08183); assay: Inhibition of P-gp efflux of digoxin in cultured Caco-2 cells; type: in vitro ADME
T2 construct: P-gp efflux of digoxin (as determined by the corrected efflux ratio) in cultured Caco-2 cells; endogenous in cells; host or cells: Caco-2 cells
T2 sequence (P08183 whole entry): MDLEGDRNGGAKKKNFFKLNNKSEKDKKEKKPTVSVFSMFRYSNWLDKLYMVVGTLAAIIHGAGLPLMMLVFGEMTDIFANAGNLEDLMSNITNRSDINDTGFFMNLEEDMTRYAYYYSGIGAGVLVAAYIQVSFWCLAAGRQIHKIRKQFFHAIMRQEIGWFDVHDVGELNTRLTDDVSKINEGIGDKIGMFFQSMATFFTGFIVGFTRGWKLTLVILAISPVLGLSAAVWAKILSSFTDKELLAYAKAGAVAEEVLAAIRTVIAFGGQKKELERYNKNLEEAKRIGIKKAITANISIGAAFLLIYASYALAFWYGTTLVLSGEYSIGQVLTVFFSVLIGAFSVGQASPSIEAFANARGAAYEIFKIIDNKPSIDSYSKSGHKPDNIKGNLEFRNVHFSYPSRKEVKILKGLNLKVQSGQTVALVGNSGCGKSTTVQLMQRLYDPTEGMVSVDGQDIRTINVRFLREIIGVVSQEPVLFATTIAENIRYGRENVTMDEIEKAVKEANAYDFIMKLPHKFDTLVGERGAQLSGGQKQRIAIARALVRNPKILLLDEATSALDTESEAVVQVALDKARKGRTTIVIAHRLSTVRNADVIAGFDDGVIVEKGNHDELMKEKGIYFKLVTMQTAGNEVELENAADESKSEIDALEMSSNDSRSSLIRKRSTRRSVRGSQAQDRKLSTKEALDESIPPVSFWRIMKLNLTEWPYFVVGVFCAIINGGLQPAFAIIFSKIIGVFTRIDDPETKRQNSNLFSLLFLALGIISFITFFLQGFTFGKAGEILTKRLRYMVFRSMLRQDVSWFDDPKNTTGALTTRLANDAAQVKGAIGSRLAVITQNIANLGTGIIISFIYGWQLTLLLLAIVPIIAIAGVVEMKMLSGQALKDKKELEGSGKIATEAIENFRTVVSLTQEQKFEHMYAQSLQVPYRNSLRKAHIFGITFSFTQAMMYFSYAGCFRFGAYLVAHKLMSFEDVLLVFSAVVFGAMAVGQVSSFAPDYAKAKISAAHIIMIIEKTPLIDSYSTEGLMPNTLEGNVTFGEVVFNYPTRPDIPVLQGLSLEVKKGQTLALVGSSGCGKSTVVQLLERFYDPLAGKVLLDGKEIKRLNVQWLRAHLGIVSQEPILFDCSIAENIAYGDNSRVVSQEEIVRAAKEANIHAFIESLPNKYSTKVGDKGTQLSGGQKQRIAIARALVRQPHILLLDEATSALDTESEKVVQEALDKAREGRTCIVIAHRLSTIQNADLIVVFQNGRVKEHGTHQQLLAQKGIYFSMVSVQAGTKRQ
Method: FIG. 4. Estimation of IC50 of maribavir on P-gp efflux of digoxin (as determined by the corrected efflux ratio) in cultured Caco-2 cells. IC50, half maximal inhibitory concentration; P-gp, P-glycoprotein.
Drug-drug interaction potential of maribavir with cytochrome P450 enzymes and P-glycoprotein (P-gp) was thoroughly characterized. The reversible inhibition, time-dependent inhibition, and induction of CYPs were evaluated in the presence of maribavir using human cells or human-derived cell lines. The inhibition of P-gp was also assessed.

CYP2D6 = CYP2D6 (Homo sapiens, UniProt P10635); assay: Time-dependent CYP inhibition (IC50 shift, 30 minute pre-incubation with HLM +/- NADPH); type: in vitro ADME; set-up: from tissue; conditions: up to 100 μM
Sequence of CYP2D6 (P10635 whole entry): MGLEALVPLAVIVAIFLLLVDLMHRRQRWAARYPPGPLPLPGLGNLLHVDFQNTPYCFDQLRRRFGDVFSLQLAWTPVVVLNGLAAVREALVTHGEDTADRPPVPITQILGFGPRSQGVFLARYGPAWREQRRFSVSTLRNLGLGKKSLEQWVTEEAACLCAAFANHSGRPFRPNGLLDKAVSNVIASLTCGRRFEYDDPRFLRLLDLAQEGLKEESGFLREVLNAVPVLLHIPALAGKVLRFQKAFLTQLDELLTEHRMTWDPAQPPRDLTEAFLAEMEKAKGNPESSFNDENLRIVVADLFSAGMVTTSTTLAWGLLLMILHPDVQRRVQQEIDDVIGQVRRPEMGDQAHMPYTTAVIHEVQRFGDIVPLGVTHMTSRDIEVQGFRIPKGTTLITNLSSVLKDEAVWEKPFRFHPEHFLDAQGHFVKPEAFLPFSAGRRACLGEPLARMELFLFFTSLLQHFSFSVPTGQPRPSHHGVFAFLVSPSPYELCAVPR
Method: (§1) Time-dependent inhibition (TDI) potentials for various CYP enzymes were evaluated by a 30 minute pre-incubation of maribavir with HLM in the presence and absence of nicotinamide-adenine dinucleotide […] (NADPH) followed by a CYP enzyme activity assay.

CYP1A2 = biological target: T3, CYP1A2 (Homo sapiens, UniProt P05177); assay: as above; type: in vitro ADME; set-up: from tissue; conditions: up to 100 μM
T3 sequence (P05177 1-516): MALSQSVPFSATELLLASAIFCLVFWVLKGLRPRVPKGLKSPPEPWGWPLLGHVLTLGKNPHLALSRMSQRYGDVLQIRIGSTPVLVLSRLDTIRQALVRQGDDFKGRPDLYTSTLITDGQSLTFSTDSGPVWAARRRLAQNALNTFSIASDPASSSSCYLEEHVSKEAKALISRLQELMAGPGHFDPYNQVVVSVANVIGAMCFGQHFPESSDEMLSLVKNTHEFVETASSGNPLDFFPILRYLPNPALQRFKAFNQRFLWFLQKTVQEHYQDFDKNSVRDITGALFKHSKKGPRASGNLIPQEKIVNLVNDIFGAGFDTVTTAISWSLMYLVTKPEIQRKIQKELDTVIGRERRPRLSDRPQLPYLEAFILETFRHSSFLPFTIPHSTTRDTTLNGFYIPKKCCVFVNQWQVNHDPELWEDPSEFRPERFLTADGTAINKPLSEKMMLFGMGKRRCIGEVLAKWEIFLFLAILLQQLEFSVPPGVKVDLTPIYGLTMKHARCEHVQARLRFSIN
Method: as §1

CYP2C9 = CYP2C9 (Homo sapiens, UniProt P11712); assay: as above; type: in vitro ADME; set-up: from tissue; conditions: up to 100 μM
Sequence of CYP2C9 (P11712 whole entry): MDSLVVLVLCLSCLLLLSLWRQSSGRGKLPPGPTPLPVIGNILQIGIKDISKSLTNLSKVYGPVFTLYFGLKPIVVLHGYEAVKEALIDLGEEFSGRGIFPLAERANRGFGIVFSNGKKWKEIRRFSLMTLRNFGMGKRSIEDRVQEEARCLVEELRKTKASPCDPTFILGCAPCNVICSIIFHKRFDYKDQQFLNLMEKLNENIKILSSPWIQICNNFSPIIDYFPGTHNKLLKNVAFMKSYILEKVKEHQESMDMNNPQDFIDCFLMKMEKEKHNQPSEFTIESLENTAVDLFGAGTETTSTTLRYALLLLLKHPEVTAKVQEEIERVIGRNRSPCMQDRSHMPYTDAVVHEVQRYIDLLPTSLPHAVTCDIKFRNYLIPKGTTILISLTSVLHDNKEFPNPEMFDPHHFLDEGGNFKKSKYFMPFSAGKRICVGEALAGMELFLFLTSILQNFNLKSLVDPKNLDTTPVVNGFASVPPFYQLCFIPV
Method: as §1

CYP2C8 = biological target: T4, CYP2C8 (Homo sapiens, UniProt P10632); assay: as above; type: in vitro ADME; set-up: from tissue; conditions: up to 100 μM
T4 sequence (P10632 1-490): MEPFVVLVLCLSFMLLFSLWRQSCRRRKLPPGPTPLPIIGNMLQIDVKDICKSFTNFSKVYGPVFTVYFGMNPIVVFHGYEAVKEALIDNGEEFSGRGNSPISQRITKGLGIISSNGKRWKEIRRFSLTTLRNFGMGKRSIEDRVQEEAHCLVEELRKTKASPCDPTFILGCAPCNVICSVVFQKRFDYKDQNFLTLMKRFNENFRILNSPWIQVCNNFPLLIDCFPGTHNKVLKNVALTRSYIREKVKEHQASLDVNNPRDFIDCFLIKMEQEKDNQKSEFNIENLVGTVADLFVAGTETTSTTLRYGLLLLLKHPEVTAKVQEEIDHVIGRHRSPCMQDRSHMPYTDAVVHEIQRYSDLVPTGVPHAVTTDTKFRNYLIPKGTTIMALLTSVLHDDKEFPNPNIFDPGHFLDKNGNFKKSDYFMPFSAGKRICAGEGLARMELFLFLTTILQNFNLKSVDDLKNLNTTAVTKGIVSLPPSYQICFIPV
Method: as §1

CYP2C19 = CYP2C19 (Homo sapiens, UniProt P33261); assay: as above; type: in vitro ADME; set-up: from tissue; conditions: up to 100 μM
Sequence of CYP2C19 (P33261 whole entry): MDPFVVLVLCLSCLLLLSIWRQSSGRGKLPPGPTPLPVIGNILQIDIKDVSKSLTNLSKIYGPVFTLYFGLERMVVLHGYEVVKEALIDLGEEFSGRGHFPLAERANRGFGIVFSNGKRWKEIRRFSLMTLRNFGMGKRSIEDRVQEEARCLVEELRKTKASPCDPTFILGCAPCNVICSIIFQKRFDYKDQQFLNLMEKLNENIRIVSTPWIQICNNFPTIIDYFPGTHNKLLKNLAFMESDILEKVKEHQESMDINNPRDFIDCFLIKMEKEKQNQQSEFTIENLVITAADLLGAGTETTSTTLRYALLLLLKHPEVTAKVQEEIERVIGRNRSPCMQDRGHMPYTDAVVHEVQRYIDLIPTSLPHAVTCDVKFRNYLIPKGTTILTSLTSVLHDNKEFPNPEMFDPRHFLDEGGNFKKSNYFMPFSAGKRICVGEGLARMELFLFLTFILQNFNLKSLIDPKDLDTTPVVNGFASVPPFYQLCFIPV
Method: as §1

[3] = maribavir 400 mg BID alone (Table 7A)
[4] = maribavir 400 mg BID, 5 doses (Table 5A)
[5] = maribavir 400 mg single dose alone (Table 6A)
[6] = maribavir 400 mg single oral dose
[7] = maribavir 800 mg single oral dose
[8] = maribavir 1600 mg single oral dose

T1 sequence (P05181 whole entry): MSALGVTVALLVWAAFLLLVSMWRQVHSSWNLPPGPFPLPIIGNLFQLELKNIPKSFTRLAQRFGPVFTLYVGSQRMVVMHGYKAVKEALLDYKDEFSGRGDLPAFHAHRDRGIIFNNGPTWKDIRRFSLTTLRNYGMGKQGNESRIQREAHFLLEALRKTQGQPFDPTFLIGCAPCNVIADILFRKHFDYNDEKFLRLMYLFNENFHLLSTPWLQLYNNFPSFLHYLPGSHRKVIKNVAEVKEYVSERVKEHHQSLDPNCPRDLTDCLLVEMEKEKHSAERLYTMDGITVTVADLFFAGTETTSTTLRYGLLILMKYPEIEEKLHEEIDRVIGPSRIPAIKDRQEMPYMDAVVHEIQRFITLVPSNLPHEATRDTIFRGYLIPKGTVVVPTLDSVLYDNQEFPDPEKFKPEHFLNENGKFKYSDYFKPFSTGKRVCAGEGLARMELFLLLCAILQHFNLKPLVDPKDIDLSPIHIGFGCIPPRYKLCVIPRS

In the case of CC(C)Nc1nc2cc(Cl)c(Cl)cc2n1[C@H]1O[C@@H](CO)[C@H](O)[C@@H]1O [maribavir, (2S,3S,4R,5S)-2-(5,6-dichloro-2-(isopropylamino)-1H-benzo[d]imidazol-1-yl)-5-(hydroxymethyl)tetrahydrofuran-3,4-diol], the “reversible inhibition of CYP2E1” value (CYP2E1) is reported as “not a reversible inhibitor; also recorded: no significant inhibition”, the safety/tolerability profile [1] is reported as “no limiting toxicity” and the “AUC(0-12 h), RATIO GEOMETRIC MEAN PREDICTED/OBSERVED” value [2, 3] is reported as 1.03. For the same compound, the “AUC(0-12 h), RATIO MEAN PREDICTED/OBSERVED” value [2, 3] was 1.06, the “C12 h, RATIO GEOMETRIC MEAN PREDICTED/OBSERVED” value [2, 3] was 0.92 and the “C12 h, RATIO MEAN PREDICTED/OBSERVED” value [2, 3] was 1.14. For the same compound, the “Cmax, RATIO GEOMETRIC MEAN PREDICTED/OBSERVED” value [2, 3] was 0.85, the “Cmax, RATIO MEAN PREDICTED/OBSERVED” value [2, 3] was 0.84 and the “AUC(0-∞), RATIO MEAN PREDICTED/OBSERVED” value [2, 4] was 1.07. The “C12 h, RATIO MEAN PREDICTED/OBSERVED” value [2, 4] was 1.18, the “Cmax, RATIO MEAN PREDICTED/OBSERVED” value [2, 4] was 0.85 and the “AUC(0-∞), GEOMEAN RATIO PREDICTED/OBSERVED” value [2, 5] was 0.78. For the same compound, the “AUC(0-∞), MEAN RATIO PREDICTED/OBSERVED” value [2, 5] was 0.79, the “Cmax, GEOMEAN RATIO PREDICTED/OBSERVED” value [2, 5] was 0.61 and the “Cmax, MEAN RATIO PREDICTED/OBSERVED” value [2, 5] was 0.62. For the same compound, the “AUC(0-∞), RATIO MEAN PREDICTED/OBSERVED” value [2, 6] was 1.00, the “Cmax, RATIO MEAN PREDICTED/OBSERVED” value [2, 6] was 0.72 and the “AUC(0-∞), RATIO MEAN PREDICTED/OBSERVED” value [2, 7] was 1.07. The “Cmax, RATIO MEAN PREDICTED/OBSERVED” value [2, 7] was 0.91, the “AUC(0-∞), RATIO MEAN PREDICTED/OBSERVED” value [2, 8] was 0.90 and the “Cmax, RATIO MEAN PREDICTED/OBSERVED” value [2, 8] was 0.99. For the same compound, the IC50 (P-gp) was 33.8 µM, the “time-dependent inhibition (TDI) of CYP2D6” value (CYP2D6) was “not a time-dependent inhibitor; also recorded: unlikely a TDI” and the “time-dependent inhibition (TDI) of CYP1A2” value (CYP1A2) was “not a time-dependent inhibitor; also recorded: unlikely a TDI”. For the same compound, the “time-dependent inhibition (TDI) of CYP2C9” value (CYP2C9) was “not a time-dependent inhibitor; also recorded: unlikely a TDI”, the “time-dependent inhibition (TDI) of CYP2C8” value (CYP2C8) was “not a time-dependent inhibitor; also recorded: unlikely a TDI” and the “time-dependent inhibition (TDI) of CYP2C19” value (CYP2C19) was “not a time-dependent inhibitor; also recorded: unlikely a TDI”.
